For one series, the system named is caspase 9 in PC3 cells. Kind of series: Caspase 9 activation (Western blot). It counts as cell-based, human. Conditions: PC3, 0–10 μM, 24 h. The method, then:
For caspase 3/7 activities, PC3 cells were seeded at 5,000 cells/well in 96-well plate overnight. Then the cells were treated with 0–10 μM CTA095 for 24 h. Caspase-3/7 activities were measured using the Apo-ONE Homogeneous Caspase-3/7 Assay kit (Promega, Madison, WI) according to the manufacturer's instruction. For caspase 9 activity, PC3 cells were seeded in 10 mm tissue culture plate and grew to 50% confluence. Cells were then treated with 0–10 μM CTA095 for 24 h. Cells were harvested and caspase 9 activity was measured using a Western blot with an anti-caspase 9 antibody.
Figure 7 Induction of apoptosis of PC3 cells following treatment with CTA095. PC3 cells were seeded at 10^6 cells/ml (2 ml) in a 6-well plate overnight and then treated with CTA095 at the indicated concentrations for 24 h. Cell cycle arrest was analyzed using PI staining (A). Apoptosis was analyzed using Annexin-V FITC apoptosis detection kit (B). Caspase 9 activation was measured using western blot (D). For caspase 3/7 activity, PC3 cells were seeded at 5000 cells/well in 96 well plate overnight and treated with CTA095 at 0–10 μM for 24 h. Caspase-3/7 activities were measured using the Apo-ONE Homogeneous Caspase-3/7 Assay kit (Promega, Madison, WI) according to the manufacturer's instruction. Columns, mean; bars, standard deviation, n = 3. […]
For orientation: In western blotting, separated proteins are transferred to a membrane and probed.

Series [1] deals with Akt phosphorylation in PC3 cells. Description: Western blot of Akt phosphorylation. Type of series: cell-based, human. The conditions noted are these: 24 h. As for the experimental part:
(§1) Western blotting was performed as described previously. Proteins were detected using the following antibodies: β-actin (Sigma-Aldrich, Saint Louis, MO), Etk (Santa Cruz Inc., Santa Cruz, CA), pEtk; Src, pSrc; Stat3, pStat3. For phospho-Etk, cells were pre-treated with 100 μM pervanadate for 15 min before harvest.
(§2) Figure 4 Inhibition of cell signaling in PC3 cells following treatment with CTA095. Cells were grown in 10 mm plate to 50% confluence and treated with CTA095. Cells were harvested after 24 h. pEtk, Etk, pSrc, Src, pStat3, Stat3, pAkt and Akt levels were measured using the corresponding antibodies by Western blot. One of three similar experiments depicted.

A further series addresses T1, Btk (Homo sapiens, UniProt Q06187).
T1 construct: purchased Millipore Inc (Dundee, UK)
Kind of series: Kinase inhibition assay (TLC; Kinase-Glo in Figure S2). Type of series: biochemical. The method, then: Kinase inhibition was measured using thin-layer-chromatography (TLC). Briefly, purified kinases (20 nM), the corresponding substrate (500 µM, TSFYGRH for Etk, YIYGSFK for the other kinases), and CTA095 (0–10 µM) were incubated in a kinase reaction (100 mM Hepes, pH 7.4, 10 mM MnCl2, 10 mM MgCl2, 1 mM DTT) for 5 min, and the reaction was started by adding 5 μCi ^33P-labeled ATP. The reaction (10 µl) was incubated at room temperature for 1 h and was stopped by adding 10 μL H3PO4. The radioactivity of the peptide substrate was analyzed using TLC as previously described.
Having isolated a small molecule that inhibits Etk, the next logical step was to determine its specificity for this enzyme. To accomplish this, purified Etk, Btk, Src and Yes were incubated in a kinase reaction buffer with CTA095 (0–1 μM) in the presence of ^33P-labeled ATP and a peptide (YIYGSFK), previously shown to be an excellent substrate for both BTK and Src family kinases. The kinase activity was measured using TLC technique.
Supplementary file pone.0070910.s002.tif: Figure S2 Inhibition of Btk by CTA095. Purified Btk (20 nM), CTA095 (0–100 μM), ATP (500 μM) and the peptide substrate (YIYGSFK) were incubated in a kinase reaction. The kinase activity was measured using Kinase-Glo assay kit (Promega Inc.) following the manufacture's instruction. Columns, mean; bars, standard deviation, n = 3. […]
In general terms: Kinase-Glo reads ATP consumption through a luciferase reaction.

In series [2] the test system is pEtk, pSrc, pSTAT3, Myc and BCL2 in PC3-AZD20 cells. Kind of series: Western blot of pEtk, pSrc, pStat3, Myc and BCL2. It counts as cell-based, human. The conditions noted are these: PC3-AZD20, 10 μM. The method, then:
(§3) PC3-AZD20 cells were seeded at 10^6 cells/well in 6 well plates overnight. The cells were treated with AZD0530 or CTA095 at 10 μM. Apoptosis was analyzed using Annexin-V FITC apoptosis detection kit. The mRNA levels of Myc and BCL2 were measured using real-time PCR. pEtk, Etk, pSrc, Src, pStat3, Stat3, Myc and BCL2 levels were measured using the corresponding antibodies through a Western blot.
(§4) Figure 12 CTA095 induces apoptosis in Src inhibitor resistant prostate cancer cells through Myc and BCL2 inhibition. PC3-AZD20 (PC3 cell resistant to 20 μM AZD0530) cells were seeded at 10^6 cells/well in 6 well plates overnight. The cells were treated with AZD0530 or CTA095 at 10 μM. Apoptosis was analyzed using Annexin-V FITC apoptosis detection kit (A). The mRNA levels of Myc and BCL2 were measured using real-time PCR (B). pEtk, Etk, pSrc, Src, pStat3, Stat3, Myc and BCL2 levels were measured using the corresponding antibodies through Western blot (C). Columns, mean; bars, standard deviation, n = 3.

In the next series the test system is HUVEC cells. Description: HUVEC cell tube formation assay. It counts as cell-based. The conditions noted are these: 5 μM, 6 h. The method, then: HUVEC cells were seeded on mitrogel and treated with CTA095 (0 and 5 μM) for 6 h. Vascular tube formation was visualized using a microscope.
Figure 8 Inhibition of tube formation and cell migration by CTA095. Inhibition of vascular tube formation of HUVEC endothelial cells (A) and inhibition of migration (wound healing) of PC3 human prostate cancer cells (B) by CTA095. (A) HUVEC cells were seed on mitrogel and treated with CTA095 (0 and 5 μM) for 6 h. Vascular tube formation was visualized using microscope. (B) PC3 cells were grown in 6-well plate to 60% confluency. Then wounds were made and treated with CTA095 (0 and 5 μM). Cell migration (wound healing) was visualized under microscope at the indicated times.

A further series can be described thus: Solubility in water. Type of series: physicochemical.
The test system of series [3] is Src phosphorylation in PC3-Etk cells. Kind of series: Western blot of Src phosphorylation in intact cells. Type of series: cell-based, human. Conditions: 5 μM and 10 μM, 24 h. As for the experimental part: as §1, §2
Series [4] has as its system BCL2 mRNA in PC3-AZD20 cells. Kind of series: Real-time PCR of BCL2 mRNA. Type of series: cell-based, human. The conditions noted are these: PC3-AZD20, 10 μM, RT-PCR. The method, then:
as §3, §4
On the technique in general: Quantitative PCR measures a nucleic acid by following its amplification.

The source of these data is PMC3744530, “CTA095, a Novel Etk and Src Dual Inhibitor, Induces Apoptosis in Prostate Cancer Cells and Overcomes Resistance to Src Inhibitors” (PLoS ONE, 2013).

Some results are limits rather than exact numbers.

T1 sequence (Q06187 whole entry): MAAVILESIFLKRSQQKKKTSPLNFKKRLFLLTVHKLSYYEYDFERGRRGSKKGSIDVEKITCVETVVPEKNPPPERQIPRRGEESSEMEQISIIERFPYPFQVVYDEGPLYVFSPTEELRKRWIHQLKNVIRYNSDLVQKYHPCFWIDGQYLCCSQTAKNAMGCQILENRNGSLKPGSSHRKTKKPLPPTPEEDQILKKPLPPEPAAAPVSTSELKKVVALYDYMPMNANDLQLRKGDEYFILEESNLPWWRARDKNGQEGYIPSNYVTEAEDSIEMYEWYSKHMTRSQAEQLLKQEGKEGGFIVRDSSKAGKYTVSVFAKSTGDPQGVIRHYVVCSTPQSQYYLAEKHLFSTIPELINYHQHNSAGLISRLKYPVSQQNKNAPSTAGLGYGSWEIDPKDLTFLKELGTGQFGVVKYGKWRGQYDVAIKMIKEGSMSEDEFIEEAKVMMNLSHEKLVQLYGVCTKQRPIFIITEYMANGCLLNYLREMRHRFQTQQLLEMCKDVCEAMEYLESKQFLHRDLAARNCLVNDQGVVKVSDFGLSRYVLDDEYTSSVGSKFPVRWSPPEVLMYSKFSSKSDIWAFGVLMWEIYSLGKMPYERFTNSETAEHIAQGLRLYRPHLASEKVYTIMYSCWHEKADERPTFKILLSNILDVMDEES

For the compound `O=c1[nH]c2cc3nc(-c4ccc5oc6ccccc6c5c4)n(CCCN4CCCCC4)c3cc2nc1-c1ccccc1` [CTA095, 2-(dibenzo[b,d]furan-2-yl)-7-phenyl-1-(3-(piperidin-1-yl)propyl)-1H-imidazo[4,5-g]quinoxalin-6(5H)-one], the “activation of caspase 9” value in the series on caspase 9 in PC3 cells is given as “dose dependent activation”. In addition, in series [1], the Akt phosphorylation entry was “inhibited”. Moreover, the IC50 (in general, the midpoint of a concentration-inhibition curve) against Btk was > 10 µM. Besides, in series [2], the “pEtk, pSrc, pSTAT3, Myc and BCL2 protein levels” value is reported as “all down regulated”. In addition, in the series on HUVEC cells, the “tube formation of HUVEC cells” value was “disrupted”. Moreover, the solubility in water result in the series “Solubility in water” is on record as “highly insoluble in water”. In addition, the Src phosphorylation entry in series [3] is “significantly inhibited”. In series [4], the “BCL2 mRNA level” value is listed as “significantly down regulated”.
